pIC50: −log10 of the molar value. Where “and” joins values, the source holds several entries; their conditions need not be identical. Equal values may be shown once. One block for each compound: values may come before it.
Test system: 947758-054-R-J2-PDC spheroid growth, percent test/control
Assay: Anticancer human tumor 947758-054-R-J2-PDC patient-derived colon adenocarcinoma cell line growth inhibition [CLK]
Conditions: spheroids with HUVEC and MSC; for viability, T/C: stronger effect = lower value
From the text: A high-throughput screen of multi-cell type tumor spheroids was designed to identify active combinations of […] and targeted small molecules. Complex spheroids include a stromal component modeled by human endothelial cells (HUVEC) and fibroblasts modeled by human mesenchymal stem cells (MSCs). The concentration ranges selected for each drug and investigational agent were based upon clinically achievable concentrations if the clinical Cmax of the agent was known.
Compounds. The drugs and investigational agents: cirtuvivint (SM08502; NSC835563), CC-671 (NSC850746), vemurafenib (NSC761431), tapotoclax (NSC804041), sotorasib (NSC818433), adagrasib (NSC831453), MRTX-1133 (NSC836407), BAY2416964 (NSC825713), copanlisib (NSC816437), inavolisib (NSC800729), abemaciclib (NSC768073), osimertinib (NSC779217), entinostat (NSC756642), eltanexor (KPT-8602, NSC794443), venetoclax (NSC766270), ceralasertib (NSC777638), bortezomib (NSC756655), olaparib (NSC753686), talazoparib (NSC767125), alisertib (NSC759677), peposertib (NSC802822), gemcitabine (NSC613327), 5-fluorouracil (NSC19893), SN-38 (NSC673596), oxaliplatin (NSC266046), paclitaxel (NSC125973), and doxorubicin (NSC123127), were obtained from the National Cancer Institute (NCI) Developmental Therapeutics Program Chemical Repository. The FDA-approved anticancer drug set is available from the Developmental Therapeutics Program at https://dtp.cancer.gov/organization/dscb/obtaining/available plates.htm. […] The stock solutions were prepared in dimethyl sulfoxide (DMSO, Sigma-Aldrich, St. Louis, MO, cat. D2650), except for the platinum complexes which were prepared in saline (Quality Biological, Gaithersburg, MD, cat. 114-055-101), at 800-fold the tested concentration and stored at -70 degrees C prior to their use. All drugs and investigational agents were tested over a range starting from a high concentration at or near the clinical Cmax and decreasing in half-log increments. If the clinical Cmax for an agent had not been determined, the highest concentration tested was 10 microM.
Cell Culture. All cells were maintained in an incubator at 37 degrees C and 5% CO2 with 95% humidity. The PDC lines were cultured according to standard operating procedures established by the NCI PDMR. Briefly, all PDCs were thawed and cultured in Matrigel-coated flasks prepared with a working solution of 1X Ham's F-12 nutrient mix, without supplementation (Invitrogen, Waltham, MA, cat. 11765054), 100 U/mL penicillin-streptomycin (Invitrogen, cat. 15140122), and 2.5% Matrigel (Corning Inc., Corning, NY, cat. 354248) for the first three passages. The 947758-054-R-J2-PDC line was cultured in 6B/Colon 1A media, which includes advanced DMEM/F-12 (Thermo Fisher Scientific, cat. 12634028), 10 mM HEPES (Thermo Fisher Scientific, cat. 15630080), 1X GlutaMAX supplement (Thermo Fisher Scientific, cat. 35050061), 0.1 mg/mL primocin (InvivoGen, cat. ant-pm-2), 10% defined fetal bovine serum, heat inactivated (HyClone Laboratories Inc., cat. SH30070.03HI), 1.25 mM N-Acetyl-L-cysteine (Sigma-Aldrich, cat. A9165), 10 mM nicotinamide (Sigma-Aldrich, cat. N0636), 1X B-27 supplement (Thermo Fisher Scientific, cat. 17504044), 1X N-2 supplement (Thermo Fisher Scientific, cat. 17502048), and 10 microM Y-27632 dihydrochloride (Tocris Bioscience, cat. 1254). The 876862-298-R-J1-PDC was cultured in 6E media, which includes all 6B/Colon 1A media components plus 50% L-WRN conditioned media (ATCC, cat. CRL-3276), 50 ng/mL recombinant human EGF recombinant protein (hEGF; Thermo Fisher Scientific, cat. PHG0311), 10 ng/mL recombinant human fibroblast growth factor 10 (hGFG-10; PeproTech, cat. 100-26), 1 ng/mL recombinant human fibroblast growth factor 2 (hFGF-2; PeproTech, cat. 100-18B), and 1 µM prostaglandin E2 (PGE2; Tocris, cat. 2296). The 227483-062-R1-J1-PDC line was cultured in Panc media, containing all 6E components except hFGF-2, with the addition of 500 nM SB-431542 (Selleckchem, cat. S1067) and 10 nM gastrin (Tocris, cat. 3006). […]

[1] = curve of first compound, second compound 0.0316 µM
[2] = curve of first compound, second compound 0.1 µM
[3] = curve of first compound, second compound 0.316 µM
[4] = curve of first compound, second compound 1 µM
[5] = curve of first compound, second compound 3.16 µM
[6] = curve of first compound, second compound 10 µM
[7] = second compound 0.0316 µM, first compound 0.0316 µM
[8] = second compound 0.0316 µM, first compound 0.1 µM
[9] = second compound 0.0316 µM, first compound 0.316 µM
[10] = second compound 0.0316 µM, first compound 1 µM
[11] = second compound 0.0316 µM, first compound 3.16 µM
[12] = second compound 0.0316 µM, first compound 10 µM
[13] = second compound 0.1 µM, first compound 0.0316 µM
[14] = second compound 0.1 µM, first compound 0.1 µM
[15] = second compound 0.1 µM, first compound 0.316 µM
[16] = second compound 0.1 µM, first compound 1 µM
[17] = second compound 0.1 µM, first compound 3.16 µM
[18] = second compound 0.1 µM, first compound 10 µM
[19] = second compound 0.316 µM, first compound 0.0316 µM
[20] = second compound 0.316 µM, first compound 0.1 µM
[21] = second compound 0.316 µM, first compound 0.316 µM
[22] = second compound 0.316 µM, first compound 1 µM
[23] = second compound 0.316 µM, first compound 3.16 µM
[24] = second compound 0.316 µM, first compound 10 µM
[25] = second compound 1 µM, first compound 0.0316 µM
[26] = second compound 1 µM, first compound 0.1 µM
[27] = second compound 1 µM, first compound 0.316 µM
[28] = second compound 1 µM, first compound 1 µM
[29] = second compound 1 µM, first compound 3.16 µM
[30] = second compound 1 µM, first compound 10 µM
[31] = second compound 3.16 µM, first compound 0.0316 µM
[32] = second compound 3.16 µM, first compound 0.1 µM
[33] = second compound 3.16 µM, first compound 0.316 µM
[34] = second compound 3.16 µM, first compound 1 µM
[35] = second compound 3.16 µM, first compound 3.16 µM
[36] = second compound 3.16 µM, first compound 10 µM
[37] = second compound 10 µM, first compound 0.0316 µM
[38] = second compound 10 µM, first compound 0.1 µM
[39] = second compound 10 µM, first compound 0.316 µM
[40] = second compound 10 µM, first compound 1 µM
[41] = second compound 10 µM, first compound 3.16 µM
[42] = second compound 10 µM, first compound 10 µM
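Further: spheroids exposed to compounds for one week before readout.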
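Wherever viability, T/C is given: 100% = DMSO vehicle control wells.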

pIC50 [1]: < 5.00 | pIC50 [2]: < 5.00 | pIC50 [3]: 5.01 | pIC50 [4]: < 5.00 | pIC50 [5]: > 7.50 | pIC50 [6]: > 7.50
Compound: CC(CO)NC(=O)c1cc(-c2ccc(Cl)cc2)nn(-c2cnn(C)c2)c1=O (stereo unspecified) + CNC(=O)c1ccc(Nc2nc(OC3CCCC3)c3c(-c4ccc5nc(C)oc5c4)c[nH]c3n2)c(OC)c1
viability, T/C [7]: 92.2% | viability, T/C [8]: 66.3% | viability, T/C [9]: 72.1% | viability, T/C [10]: 71.8% | viability, T/C [11]: 65.8% | viability, T/C [12]: 52.3% | viability, T/C [13]: 84.3% | viability, T/C [14]: 93.9% | viability, T/C [15]: 80% | viability, T/C [16]: 84.6% | viability, T/C [17]: 68.6% | viability, T/C [18]: 52.5% | viability, T/C [19]: 76.2% | viability, T/C [20]: 69% | viability, T/C [21]: 69.8% | viability, T/C [22]: 87.1% | viability, T/C [23]: 88.5% | viability, T/C [24]: 49.1% | viability, T/C [25]: 67.2% | viability, T/C [26]: 51.9% | viability, T/C [27]: 52.7% | viability, T/C [28]: 65.3% | viability, T/C [29]: 72.4% | viability, T/C [30]: 35.9% | viability, T/C [31]: 46.9% | viability, T/C [32]: 41% | viability, T/C [33]: 51.1% | viability, T/C [34]: 56.6% | viability, T/C [35]: 55.9% | viability, T/C [36]: 37.2% | viability, T/C [37]: 28.5% | viability, T/C [38]: 44.2% | viability, T/C [39]: 40.4% | viability, T/C [40]: 41.6% | viability, T/C [41]: 30% | viability, T/C [42]: 25.9%

pIC50 (curve of compound): < 5.00
Compound: O=C(c1cc(Cc2n[nH]c(=O)c3ccccc23)ccc1F)N1CCN(C(=O)C2CC2)CC1
viability, T/C (compound 0.0316 µM): 94.1% and 101% | viability, T/C (compound 0.1 µM): 93.6% and 90% | viability, T/C (compound 0.316 µM): 106% and 101% | viability, T/C (compound 1 µM): 107% | viability, T/C (compound 3.16 µM): 131% and 101% | viability, T/C (compound 10 µM): 177% and 120%

Compound: COC1C=CCC(C)C(C)S(=O)(=O)NC(=O)c2ccc3c(c2)N(CC2CCC21)CC1(CCCc2cc(Cl)ccc21)CO3 (stereo unspecified) + CN1CCN(c2cc(C(=O)Nc3cc4cc(-c5cnn(C)c5)ccc4cn3)ccn2)CC1
pIC50 [1]: 5.10 | pIC50 [2]: 5.06 | pIC50 [3]: > 7.50 | pIC50 [4]: > 7.50 | pIC50 [5]: > 7.50 | pIC50 [6]: > 7.50 | viability, T/C [7]: 111% | viability, T/C [8]: 106% | viability, T/C [9]: 111% | viability, T/C [10]: 97% | viability, T/C [11]: 101% | viability, T/C [12]: 37.8% | viability, T/C [13]: 137% | viability, T/C [14]: 163% | viability, T/C [15]: 179% | viability, T/C [16]: 174% | viability, T/C [17]: 151% | viability, T/C [18]: 35.2% | viability, T/C [19]: 4.59% | viability, T/C [20]: 2.89% | viability, T/C [21]: 2.74% | viability, T/C [22]: 3.21% | viability, T/C [23]: 3.47% | viability, T/C [24]: 6.05% | viability, T/C [25]: 1.87% | viability, T/C [26]: 4.11% | viability, T/C [27]: 0.16% | viability, T/C [28]: 1.58% | viability, T/C [29]: 1.7% | viability, T/C [30]: 0.3% | viability, T/C [31]: 0.35% | viability, T/C [32]: 0.72% | viability, T/C [33]: 0.26% | viability, T/C [34]: 1.14% | viability, T/C [35]: 0.26% | viability, T/C [36]: 0.15% | viability, T/C [37]: 1.19% | viability, T/C [38]: 3.23% | viability, T/C [39]: 2.27% | viability, T/C [40]: 1.77% | viability, T/C [41]: 0.61% | viability, T/C [42]: 1.23%

Reference: PubChem BioAssay AID2060605 (Molecular Pharmacology Branch, DTP, NCI, 2025)
